Experimental data as given in ChEMBL document CHEMBL4385613, “Discovery of Conformational Control Inhibitors Switching off the Activated c-KIT and Targeting a Broad Range of Clinically Relevant c-KIT Mutants” (J Med Chem, 2019).
pIC50: −log10 of the molar value. The source made the active and inactive calls. The rule behind the calls is not given here.

What was measured:
GISTT1 [1] = experiment: Antiproliferative activity against human GISTT1 cells harboring heterozygous V560-Y578 del mutation assessed as reduction in cell viability by methylene blue staining based assay; format: functional
[2] = target: Mast/stem cell growth factor receptor Kit (Homo sapiens, UniProt P10721); experiment: Inhibition of recombinant human N-terminal 6x-His-tagged c-KIT (547 to 935 residues)/(694 to 753 residues deletion) expressed in baculovirus infected Sf9 insect cells assessed as decrease in poly (Glu,Tyr) 4:1 phosphorylation measured after 150 mins in presence of ATP by ADP-glo based luminescence assay
GISTT1 [3] = experiment: Antiproliferative activity against human GISTT1 cells harboring heterozygous V560-Y578 deletion mutant assessed as reduction in cell viability by MTS assay; format: functional
GIST48 [4] = experiment: Antiproliferative activity against human GIST48 cells harboring c-KIT exon 11 homozygous primary missense V560D mutant and exon 17 heterozygous secondary D820A mutant assessed as reduction in cell viability by methylene blue staining based assay; format: functional
GIST882 [5] = experiment: Antiproliferative activity against human GIST882 cells harboring c-KIT exon 13 homozygous primary K642E mutant assessed as reduction in cell viability by methylene blue staining based assay; format: functional
GIST882 [6] = experiment: Antiproliferative activity against human GIST882 cells harboring c-KIT exon 13 homozygous primary K642E mutant assessed as reduction in cell viability by MTS assay; format: functional
GIST430 [7] = experiment: (§1) Antitumor activity against human GIST430 cells harboring c-KIT exon 11 primary in-frame V560-L576 deletion mutant and exon 13 heterozygous secondary missense V654A mutant xenografted in NOD-SCID mouse assessed as tumor regression at 40 mg/kg, po administered for 2 weeks with 2 days rest after day 5 and measured thrice per week up to 21 days during compound dosing; format: functional, organism-based
GIST430 [8] = experiment: Antiproliferative activity against human GIST430 cells harboring c-KIT exon 11 primary in-frame V560-L576 deletion mutant and exon 13 heterozygous secondary missense V654A mutant assessed as reduction in cell viability by MTS assay; format: functional
GIST48 [9] = experiment: Antiproliferative activity against human GIST48 cells harboring c-KIT exon 11 homozygous primary missense V560D mutant and exon 17 heterozygous secondary D820A mutant assessed as reduction in cell viability by MTS assay; format: functional
GIST430 [10] = experiment: as §1, with “growth inhibition” for “regression”; format: functional, organism-based
GIST430 [11] = experiment: Antiproliferative activity against human GIST430 cells harboring c-KIT exon 11 primary in-frame V560-L576 deletion mutant and exon 13 heterozygous secondary missense V654A mutant assessed as reduction in cell viability by methylene blue staining based assay; format: functional

SMILES | pIC50 [2] | GI50 (GISTT1 [1]) [nM] | GI50 (GISTT1 [3]) [nM] | further results
CCc1cc(NC(=O)Nc2ccc(-c3cnc(Nc4cc(N5CCN(CC)CC5)nc(C)n4)s3)cc2)no1 | 7.01 | 3.2 | 3.2 | 
CCc1cc(NC(=O)Nc2ccc(-c3csc(Nc4cc(N5CCN(CC)CC5)nc(C)n4)n3)cc2)no1 | 6.02 | > 1000 | > 1000 | 
CCN1CCN(c2cc(Nc3ncc(-c4ccc(NS(=O)(=O)c5ccccc5)cc4)s3)nc(C)n2)CC1 | 7.27 | 42 | 42 | 
CCN(CC)CCNC(=O)c1c(C)[nH]c(/C=C2\C(=O)Nc3ccc(F)cc32)c1C [SUNITINIB] |  | 38 | 38 | GI50 (GIST48 [4]): 2000 nM; GI50 (GIST882 [5]): 64 nM; GI50 (GIST882 [6]): 64 nM; Activity (GIST430 [7]): inactive; GI50 (GIST430 [8]): 47 nM; GI50 (GIST48 [9]): 2000 nM; TGI (GIST430 [10]): Active; GI50 (GIST430 [11]): 47 nM
CCc1cc(NC(=O)NCCCc2cnc(Nc3cc(N4CCN(CC)CC4)nc(C)n3)s2)no1 | 7.30 | 10 | 10 | 
CCc1cc(NC(=O)Nc2ccc(-c3cnc(Nc4cc(N5CCC(N)C5)nc(C)n4)s3)cc2)no1 (configuration not stated) | 7.82 | 6.4 | 6.4 | 
CCN1CCN(c2cc(Nc3ncc(-c4ccc(NC(N)=O)cc4)s3)ncn2)CC1 | 7.01 | 86 | 86 | 
CCN1CCN(c2cc(Nc3ncc(-c4ccc(NC(C)=O)cc4)s3)ncn2)CC1 | 6.89 | 25 | 25 | 
CCc1cc(NC(=O)Nc2ccc(-c3cnc(Nc4cc(N5CCN(CC)CC5)ncn4)s3)cn2)no1 | 7.37 | 1 | 1 | 

Continued, in another order:

pIC50 [2] | SMILES | GI50 (GISTT1 [1]) [nM] | GI50 (GISTT1 [3]) [nM] | further results
6.91 | CCc1cc(NC(=O)Nc2ccc(-c3sc(Nc4cc(N5CCN(CC)CC5)ncn4)nc3C)cc2)no1 | 3.3 | 3.3 | 
7.15 | CCc1cc(NC(=O)Nc2ccc(-c3cnc(Nc4cc(N5CCN(CCO)CC5)ncn4)s3)cc2)no1 | 3.3 | 3.3 | 
7.42 | CCc1cc(NC(=O)NCC#Cc2cnc(Nc3cc(N4CCN(CC)CC4)ncn3)s2)no1 | 9.9 | 9.9 | 
7.07 | CCc1cc(NC(=O)Nc2ccc(-c3cnc(Nc4nc(C)nc(N5CCN(CC)CC5)n4)s3)cc2)no1 | 13 | 13 | 
7.09 | CCc1cc(NC(=O)N2CC=C(c3cnc(Nc4cc(N5CCN(CC)CC5)nc(C)n4)s3)CC2)no1 | 4.9 | 4.9 | 
7.70 | Cc1nc(Nc2ncc(-c3ccc(NC(=O)Nc4ccccc4)cc3)s2)cc(N2CCN(C)CC2)n1 | 5.4 | 5.4 | 
